Source: PMC12298827, “Subchronic Toxicities of Four Per- and Polyfluoroalkyl Substances (PFASs) by Oral Exposure in Sprague–Dawley Rats” (Toxics, 2025)
Marks after values point to notes of the source that are not given here.

System: male and female Sprague–Dawley rats
Assay: 90-day subchronic oral gavage toxicity study
Type: in vivo, rat
Procedure: Subchronic (90-day) studies were performed in accordance with current U.S. EPA’s Toxic Substances Control Act Good Laboratory Practice (GLP) Standards, with the following two general exceptions to the GLP guidelines: Analysis of the dose formulations was conducted according to RTI-approved Standard Operating Procedures, and corn oil (the vehicle) was not characterized (certificate of analysis from the vendor is available in the appendices to the final reports). Male and female Sprague–Dawley rats (five dose levels plus a control, n = 10/sex/dose group, corn oil vehicle dose volume of 3 mL/kg; oral gavage) were used in these studies, and the rats were euthanized on SD 91. The dose levels for PFHI were 0, 12.5, 25, 50, 100, and 200 mg/kg-day. The dose levels for MHFPK were 0, 18.8, 37.5, 75, 150, and 300 mg/kg-day. The dose levels for PFNAC were 0, 0.1, 0.3, 1.0, 3.0, and 10 mg/kg-day for male rats and 0, 0.3, 1.0, 3.0, 10, and 30 mg/kg-day for female rats. For CTFPA, the dose levels were 0, 1.9, 3.8. 7.5, 15, and 30 mg/kg-day for male rats and 0, 6.3, 12.5, 25, 50, and 100 mg/kg-day for female rats. For each PFAS, three batches of dosing solution were prepared. The time between the batch preparation of the dosing solutions ranged between 29 and 39 days. Blood samples were collected from all the rats at termination for serum chemistry, hematology, coagulation, and the analysis of the parent PFAS chemical in the plasma. In vivo data collection and further detail on the endpoints examined postmortem are described below.
The rats were observed twice daily for morbidity and mortality throughout the study period. At least once prior to randomization to test groups and weekly thereafter, the rats were physically examined, and bodyweights were obtained. Feed consumption was quantified weekly starting on SD 1.
Neurotoxicity was evaluated using the functional observational battery (FOB) and measuring locomotor activity (LMA) 2–4 h post dosing on SDs 78–80 and 80–84, respectively. For both the 14- and 90-day studies, an ophthalmologic examination was conducted prior to randomization and near the end of the study, using indirect ophthalmoscopy and slit–lamp biomicroscopy (as needed) after the administration of a mydriatic solution.
Hematology, biochemistry, and coagulation endpoints were measured at the termination of the study. A Siemens Advia 2120i hematology analyzer (Siemens Healthineers, Erlangen, Germany) was used to measure (or calculate) the parameters related to the complete blood count, leukocyte differential count, and reticulocyte count. The hematology parameters are listed and described in Table 2. The prothrombin time […] and activated partial thromboplastin time (APTT) were measured using an Instrumentation Laboratory (Bedford, MA, USA) ACL Elite Pro coagulation analyzer (laser–nephelometric centrifugal method).
At necropsy, the rats were visually examined for external abnormalities and organ weights (absolute and relative to the BW and brain weight), which were recorded (paired organs weighed together). The tissues were preserved in 10% neutral buffered formalin (NBF), except for the ocular tissues, testes, and epididymides, which were preserved in modified Davidson’s fixative and later transferred to 10% NBF. Bone marrow smears were prepared from the femurs, and the slides were air-dried, fixed in methanol, stained, and stored at room temperature for possible future evaluation. The preserved tissues were embedded in paraffin, sectioned, stained with hematoxylin and eosin, and examined by a board-certified veterinary pathologist.
Statistical analysis was performed using Provantis™ Version 10 or greater (Instem LSS, Limited; Stone, Staffordshire, UK). Differences among the treatment groups compared to the control were evaluated using one-way analysis of variance (ANOVA) if the underlying assumptions of a normal distribution (Shapiro–Wilk test) and the homogeneity of the variance (Levene’s test) were satisfied. […]

For `C=CC(=O)OCC(F)(F)C(F)(F)C(F)(F)C(F)(F)C(F)(F)C(F)(F)C(F)(F)C(F)F` [PFNAC, 1H,1H,9H-Perfluorononyl acrylate], the “Bodyweight (BW) and bodyweight gain” value (90-day, both sexes, all doses) was “None in females; effects in males at 10 mg/kg-day were not considered adverse because they did not persist through the study (days 8–29)”, the Clinical observations (90-day, both sexes, all doses) was “None” and the Coagulation endpoints (90-day, both sexes, all doses) was “Males at ≥1 mg/kg-day, mildly shortened APTT, not considered as biologically significant”. For the same compound, the Feed consumption (90-day, both sexes, all doses) was “Increased in males and females in some dose groups during some time periods, not considered as adverse (not persistent or consistent although sometimes statistically significant)”, the Functional observational battery (90-day, both sexes, all doses) was “Some changes, all considered as incidental and non-adverse” and the Gross lesions (90-day, both sexes, all doses) was “None considered as PFNAC related”. For the same compound, the Hematology (90-day, both sexes, all doses) was “No changes in females; Males—minimal decreases in red cell mass (HGB, HCT, and RBC) at ≥0.1 mg/kg-day, minimal decreases in absolute reticulocytes at ≥1 mg/kg and from minimal to mild decreases in neutrophils and eosinophils at ≥0.1 mg/kg-day ^2”, the Histopathology (90-day, both sexes, all doses) was “The kidney and liver ^4 of males at ≥0.3 mg/kg-day and females at 30 mg/kg-day; the thyroid gland in males” and the Locomotor activity (90-day, both sexes, all doses) was “No effects”. For the same compound, the Morbidity and mortality (90-day, both sexes, all doses) was “None”, the Ophthalmology (90-day, both sexes, all doses) was “No ocular lesions” and the Organ weight changes (90-day, both sexes, all doses) was “Mean absolute and/or relative organ weight increases in the liver and kidneys of males at ≥0.3 mg/kg-day and females at ≥3 mg/kg-day”. For the same compound, the “BMD10, absolute kidney weight increase” value (female) was 13.4 mg/kg-day, the “BMD10, absolute liver weight increase” value (female) was 11.2 mg/kg-day and the “BMD10, relative kidney weight increase” value (female) was 6.0 mg/kg-day. The “BMD10, relative liver weight increase” value (female) was 12.8 mg/kg-day, the “BMDL, absolute kidney weight increase” value (female) was 2.68 mg/kg-day and the “BMDL, absolute liver weight increase” value (female) was 8.8 mg/kg-day. For the same compound, the “BMDL, relative kidney weight increase” value (female) was 0.8 * mg/kg-day, the “BMDL, relative liver weight increase” value (female) was 10.1 mg/kg-day and the “LOEL, absolute kidney weight increase” value (female) was 10 mg/kg-day. The “LOEL, absolute liver weight increase” value (female) was 30 mg/kg-day, the “LOEL, relative kidney weight increase” value (female) was 3 mg/kg-day and the “LOEL, relative liver weight increase” value (female) was 30 mg/kg-day. For the same compound, the “NOEL, absolute kidney weight increase” value (female) was 3 mg/kg-day, the “NOEL, absolute liver weight increase” value (female) was 10 mg/kg-day and the “NOEL, relative kidney weight increase” value (female) was 1 mg/kg-day. For the same compound, the “NOEL, relative liver weight increase” value (female) was 10 mg/kg-day, the A/G (female, 0.1 mg/kg-day) was 1.11±0.08 ratio and the ALB (female, 0.1 mg/kg-day) was 4.36 ± 0.22 g/dL. The ALPi (female, 0.1 mg/kg-day) was 78.0±24.1 U/L, the BUN (female, 0.1 mg/kg-day) was 15.7 ± 1.3 mg/dL and the CHOL (female, 0.1 mg/kg-day) was 102.1 ± 16.7 mg/dL. For the same compound, the GLOB (female, 0.1 mg/kg-day) was 3.93 ± 0.12 g/dL, the GLUC (female, 0.1 mg/kg-day) was 99.4 ± 11.9 mg/dL and the “% BW Gain” value (female, 0.3 mg/kg-day) was 47.16%. The “% Diff, % BW Gain” value (female, 0.3 mg/kg-day) was -3.35%, the “% Diff, Total BW change” value (female, 0.3 mg/kg-day) was -2.86% and the “% Diff, Total Food Consumed” value (female, 0.3 mg/kg-day) was 4.16%. The A/G (female, 0.3 mg/kg-day) was 1.10±0.06 ratio, the ABEOS (female, 0.3 mg/kg-day) was 0.089±0.035 K/µL and the ABNEUT (female, 0.3 mg/kg-day) was 1.725±1.311 K/µL. The ABRETi (female, 0.3 mg/kg-day) was 188.23±26.07 10^9/L, the ALB (female, 0.3 mg/kg-day) was 4.44 ± 0.33 g/dL and the ALPi (female, 0.3 mg/kg-day) was 54.8±10.4 U/L. It also gave an APTT (female, 0.3 mg/kg-day) of 21.25 s, a BUN (female, 0.3 mg/kg-day) of 16.8 ± 3.3 mg/dL and a CHOL (female, 0.3 mg/kg-day) of 99.7 ± 15.0 mg/dL. For the same compound, the GLOB (female, 0.3 mg/kg-day) was 4.05 ± 0.18 g/dL, the GLUC (female, 0.3 mg/kg-day) was 104.6 ± 13.0 mg/dL and the HCT (female, 0.3 mg/kg-day) was 41.35±1.64%. The HGB (female, 0.3 mg/kg-day) was 13.21 ± 0.43 g/dL, the “Kidney Weight” value (female, 0.3 mg/kg-day) was 1.74 g and the “Kidney/Body Weight” value (female, 0.3 mg/kg-day) was 0.59%. For the same compound, the “Kidney/Brain Weight” value (female, 0.3 mg/kg-day) was 91.4%, the “Liver Weight” value (female, 0.3 mg/kg-day) was 7.76 g and the “Liver/Body Weight” value (female, 0.3 mg/kg-day) was 2.62%. For the same compound, the “Liver/Brain Weight” value (female, 0.3 mg/kg-day) was 408%, the MPV (female, 0.3 mg/kg-day) was 7.62 ± 0.63 fL and the PT (female, 0.3 mg/kg-day) was 13.79 s. For the same compound, the RBC (female, 0.3 mg/kg-day) was 7.177±0.276 M/µL, the “Total BW change” value (female, 0.3 mg/kg-day) was 98.25 g and the “Total Food Consumed” value (female, 0.3 mg/kg-day) was 1466 g. For the same compound, the “% BW Gain” value (female, 1.0 mg/kg-day) was 45.99%, the “% Diff, % BW Gain” value (female, 1.0 mg/kg-day) was -5.73% and the “% Diff, Total BW change” value (female, 1.0 mg/kg-day) was -6.27%. The “% Diff, Total Food Consumed” value (female, 1.0 mg/kg-day) was 2.64%, the A/G (female, 1.0 mg/kg-day) was 1.13±0.06 ratio and the ABEOS (female, 1.0 mg/kg-day) was 0.086±0.028 K/µL. For the same compound, the ABNEUT (female, 1.0 mg/kg-day) was 1.468±0.616 K/µL, the ABRETi (female, 1.0 mg/kg-day) was 180.48±14.00 10^9/L and the ALB (female, 1.0 mg/kg-day) was 4.43 ± 0.26 g/dL. It also gave an ALPi (female, 1.0 mg/kg-day) of 52.1±13.7 U/L, an APTT (female, 1.0 mg/kg-day) of 20.13 s and a BUN (female, 1.0 mg/kg-day) of 13.9 ± 2.0 mg/dL. It also gave a CHOL (female, 1.0 mg/kg-day) of 94.3 ± 18.7 mg/dL, a GLOB (female, 1.0 mg/kg-day) of 3.94 ± 0.19 g/dL and a GLUC (female, 1.0 mg/kg-day) of 100.9 ± 12.7 mg/dL. It also gave an HCT (female, 1.0 mg/kg-day) of 41.13±1.98% and an HGB (female, 1.0 mg/kg-day) of 13.19 ± 0.73 g/dL.
